Data reported in ChEMBL document CHEMBL1201862, “PubChem BioAssay data set” (2004).
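Interpolation was linear, between the two tested concentrations surrounding the appropriate level; five concentrations were tested over 48 hours in 96-well plates. The concentration for 50% growth inhibition is given as GI50.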 The source made the active and inactive calls. Cut-off read from the data, not from the text of the source: active = GI50 up to about 1.1 µM and inactive = higher.

What was measured:
Assay in all cases: inhibition of tumour cell growth, NCI panel, 48 h
[1] = test system: NCI-H460
[2] = test system: OVCAR-3
[3] = test system: MDA-MB-435
[4] = test system: SR
[5] = test system: MDA-N
[6] = test system: M14
[7] = test system: Malme-3M
[8] = test system: COLO 205
[9] = test system: HL-60
[10] = test system: 786-0
[11] = test system: IGROV-1
[12] = test system: A549
[13] = test system: SK-OV-3
[14] = test system: NCI-H226
[15] = test system: T47D
[16] = test system: UACC-257
[17] = test system: NCI-H23
[18] = test system: HOP-62
[19] = test system: EKVX
[20] = test system: BT-549

| SMILES | GI50 [1] | GI50 [2] | GI50 [3] | GI50 [4] | GI50 [5] | GI50 [6] | GI50 [7] | GI50 [8] | GI50 [9] | GI50 [10] | GI50 [11] | GI50 [12] | GI50 [13] | GI50 [14] | GI50 [15] | GI50 [16] | GI50 [17] | GI50 [18] | GI50 [19] | GI50 [20] |
| --- | --- | --- | --- | --- | --- | --- | --- | --- | --- | --- | --- | --- | --- | --- | --- | --- | --- | --- | --- | --- |
| COc1cc(OC)c2c(c1OC)OCC(Cc1ccc(O)cc1)C2=O (stereo not drawn) | > 25 µM (inactive) | 21 µM (inactive) | > 25 µM (inactive) | > 25 µM (inactive) | > 25 µM (inactive) | > 25 µM (inactive) | > 25 µM (inactive) | > 25 µM (inactive) | 11.3 µM (inactive) | > 25 µM (inactive) | > 25 µM (inactive) | > 25 µM (inactive) | > 25 µM (inactive) | > 25 µM (inactive) | 8.3 µM (inactive) | > 25 µM (inactive) | > 25 µM (inactive) | > 25 µM (inactive) |  |  |
| O=C1c2ccccc2C(=O)N1CCc1nc(-c2ccccc2)c[nH]1 | > 100 µM (inactive) | > 100 µM (inactive) |  | > 100 µM (inactive) | > 100 µM (inactive) | > 100 µM (inactive) | 24.8 µM (inactive) | > 100 µM (inactive) | > 100 µM (inactive) | > 100 µM (inactive) | > 100 µM (inactive) | > 100 µM (inactive) | > 100 µM (inactive) | > 100 µM (inactive) |  | > 100 µM (inactive) | > 100 µM (inactive) | > 100 µM (inactive) | > 100 µM (inactive) | > 100 µM (inactive) |
| O=C(/C=C1\N=C(c2ccccc2)N(c2ccc3c(c2)Sc2cc(N4C(=O)/C(=C/C(=O)/C=C/c5ccccc5)N=C4c4ccccc4)ccc2N3)C1=O)/C=C/c1ccccc1 | 58.7 µM (inactive) | 24.9 µM (inactive) | 22 µM (inactive) |  |  | 64 µM (inactive) | 26.1 µM (inactive) | > 100 µM (inactive) | 40.6 µM (inactive) | 42.2 µM (inactive) | 37.2 µM (inactive) | > 100 µM (inactive) | 18.3 µM (inactive) |  | 63.7 µM (inactive) | 27.4 µM (inactive) | 50.4 µM (inactive) | 48.8 µM (inactive) | 85.7 µM (inactive) | 23.5 µM (inactive) |
| CN1CCN(c2ccc3nc(C4=C(O)C(=O)c5c(nc(CO)n5C)C4=O)[nH]c3n2)CC1 | > 100 µM (inactive) | > 100 µM (inactive) | > 100 µM (inactive) |  |  | > 100 µM (inactive) | > 100 µM (inactive) | > 100 µM (inactive) | > 100 µM (inactive) | > 100 µM (inactive) | > 100 µM (inactive) | > 100 µM (inactive) | > 100 µM (inactive) | > 100 µM (inactive) | 61.4 µM (inactive) | > 100 µM (inactive) | > 100 µM (inactive) | > 100 µM (inactive) | > 100 µM (inactive) | > 100 µM (inactive) |
| C(/Cc1ccc2c(c1)OCO2)=N\N=C1NCCN1 | 47.8 µM (inactive) | > 100 µM (inactive) | > 100 µM (inactive) | 73.5 µM (inactive) |  | > 100 µM (inactive) | > 100 µM (inactive) | > 100 µM (inactive) | 89.1 µM (inactive) | > 100 µM (inactive) | > 100 µM (inactive) | 73.8 µM (inactive) | 48.6 µM (inactive) | 33.2 µM (inactive) | 90.6 µM (inactive) | > 100 µM (inactive) | > 100 µM (inactive) | 56.1 µM (inactive) | 61.2 µM (inactive) | 91.2 µM (inactive) |
| Cc1nc(Nc2ccccc2)sc1C(=O)NNc1ccc([N+](=O)[O-])cc1[N+](=O)[O-] | 31.9 µM (inactive) | 34.4 µM (inactive) |  | 14.7 µM (inactive) |  | 38.9 µM (inactive) | 43.9 µM (inactive) | 30.3 µM (inactive) | 13.9 µM (inactive) | 27.9 µM (inactive) | 45.9 µM (inactive) | 93.5 µM (inactive) | 40.6 µM (inactive) | 85.5 µM (inactive) |  | 43.5 µM (inactive) | 17.5 µM (inactive) | 41.9 µM (inactive) | 18.9 µM (inactive) |  |
| CCOC1=NC(C(F)(F)F)(C(F)(F)F)N=C(N2CCCCC2)O1 | > 100 µM (inactive) | > 100 µM (inactive) | > 100 µM (inactive) | 59 µM (inactive) |  | > 100 µM (inactive) | > 100 µM (inactive) | > 100 µM (inactive) | 29.3 µM (inactive) | > 100 µM (inactive) | > 100 µM (inactive) | > 100 µM (inactive) |  | > 100 µM (inactive) | > 100 µM (inactive) | > 100 µM (inactive) | > 100 µM (inactive) | > 100 µM (inactive) | > 100 µM (inactive) |  |
| Cc1ccc(S(=O)(=O)SCc2ccccc2CSS(=O)(=O)c2ccc(C)cc2)cc1 | 42.2 µM (inactive) | 20.5 µM (inactive) |  | 16.1 µM (inactive) |  | 19.1 µM (inactive) | 24.2 µM (inactive) | 17 µM (inactive) | 12.1 µM (inactive) | 18.2 µM (inactive) | > 100 µM (inactive) | > 100 µM (inactive) | > 100 µM (inactive) | > 100 µM (inactive) |  | 71.9 µM (inactive) | 18.8 µM (inactive) | > 100 µM (inactive) | 44.4 µM (inactive) |  |
| COc1ccc(Nc2nc3cc(C(F)(F)F)ccc3nc2C(=O)O)cc1 | 23.9 µM (inactive) | 12.6 µM (inactive) | 22.5 µM (inactive) | 11.1 µM (inactive) | 31 µM (inactive) |  | 18.2 µM (inactive) | 21.3 µM (inactive) | 19.9 µM (inactive) | 17.5 µM (inactive) | 24 µM (inactive) |  |  | 15.6 µM (inactive) |  | 19.1 µM (inactive) | 14.4 µM (inactive) | 14.9 µM (inactive) | 22.9 µM (inactive) | 14.4 µM (inactive) |
| CCOC(=O)c1c(NC(=O)c2ccccc2)c(C#N)c2n1CCCCC2 | > 100 µM (inactive) |  | > 100 µM (inactive) | > 100 µM (inactive) | > 100 µM (inactive) | > 100 µM (inactive) | > 100 µM (inactive) | > 100 µM (inactive) | > 100 µM (inactive) | > 100 µM (inactive) | > 100 µM (inactive) | > 100 µM (inactive) | > 100 µM (inactive) | > 100 µM (inactive) | > 100 µM (inactive) | > 100 µM (inactive) | > 100 µM (inactive) | > 100 µM (inactive) | > 100 µM (inactive) |  |
| CC(=O)c1cccc(N2COC(C)(C)c3nc4ccccc4n3C2)c1 | > 100 µM (inactive) | > 100 µM (inactive) |  | > 100 µM (inactive) |  | > 100 µM (inactive) | > 100 µM (inactive) | > 100 µM (inactive) | > 100 µM (inactive) | > 100 µM (inactive) | > 100 µM (inactive) | > 100 µM (inactive) | > 100 µM (inactive) | > 100 µM (inactive) |  | > 100 µM (inactive) | > 100 µM (inactive) | > 100 µM (inactive) | > 100 µM (inactive) |  |
| COc1ccc2c(c1)C=C(C(C)(C)C)NS2(=O)=O | > 100 µM (inactive) | > 100 µM (inactive) |  | > 100 µM (inactive) |  | > 100 µM (inactive) | > 100 µM (inactive) | > 100 µM (inactive) | > 100 µM (inactive) | > 100 µM (inactive) | > 100 µM (inactive) | > 100 µM (inactive) | > 100 µM (inactive) | > 100 µM (inactive) |  | > 100 µM (inactive) | > 100 µM (inactive) | > 100 µM (inactive) | > 100 µM (inactive) |  |
| CCOC(=O)C1=NC(c2ccccc2)(c2ccccc2)OC1=C(Cl)Cl | 70.6 µM (inactive) | 42.2 µM (inactive) |  | 19.8 µM (inactive) |  | 85.9 µM (inactive) | 40 µM (inactive) | > 100 µM (inactive) | 11.9 µM (inactive) | > 100 µM (inactive) | > 100 µM (inactive) | 54.6 µM (inactive) | > 100 µM (inactive) | > 100 µM (inactive) |  | 32.4 µM (inactive) | > 100 µM (inactive) | > 100 µM (inactive) | 35.5 µM (inactive) |  |
| O=S(=O)(NC(c1ccccc1)(c1cc2ccccc2[nH]1)c1cc2ccccc2n1S(=O)(=O)c1ccccc1)c1ccccc1 (stereo not drawn) | > 100 µM (inactive) | 91.8 µM (inactive) | > 100 µM (inactive) | > 100 µM (inactive) |  | 62.2 µM (inactive) | 59.2 µM (inactive) | > 100 µM (inactive) | > 100 µM (inactive) | > 100 µM (inactive) | > 100 µM (inactive) | 48.3 µM (inactive) | 0.292 µM (active) | > 100 µM (inactive) | > 100 µM (inactive) | > 100 µM (inactive) | > 100 µM (inactive) | > 100 µM (inactive) | > 100 µM (inactive) | > 100 µM (inactive) |
| O=C1OC(OCC#CCOC2OC(=O)C(Cl)=C2Cl)C(Cl)=C1Cl (stereo not drawn) | 23.6 µM (inactive) | 13.9 µM (inactive) | 12.2 µM (inactive) | 2 µM (inactive) |  | 11.2 µM (inactive) |  | 7.41 µM (inactive) |  | 4.86 µM (inactive) | 12.9 µM (inactive) | 18.4 µM (inactive) |  |  | 10.7 µM (inactive) | 15 µM (inactive) | 15.6 µM (inactive) | 13.6 µM (inactive) | 20.1 µM (inactive) |  |
| Cc1ccc(-c2nc(Cc3n[nH]c(-c4ccc(C)cc4)n3)n[nH]2)cc1 |  | > 100 µM (inactive) | > 100 µM (inactive) |  | > 100 µM (inactive) | > 100 µM (inactive) |  | > 100 µM (inactive) |  | > 100 µM (inactive) | > 100 µM (inactive) | > 100 µM (inactive) | > 100 µM (inactive) |  |  | > 100 µM (inactive) | 18.3 µM (inactive) | 29 µM (inactive) | > 100 µM (inactive) | > 100 µM (inactive) |
